The target of one data set is ACE2 (Homo sapiens, UniProt Q9BYF1). The data set can be described thus: LSPR assay, binding to ACE2.
The conditions of data set [1]: mouse, in vivo.

pKd: −log10 of the molar value.

Chain of ACE2 (Q9BYF1 18-805): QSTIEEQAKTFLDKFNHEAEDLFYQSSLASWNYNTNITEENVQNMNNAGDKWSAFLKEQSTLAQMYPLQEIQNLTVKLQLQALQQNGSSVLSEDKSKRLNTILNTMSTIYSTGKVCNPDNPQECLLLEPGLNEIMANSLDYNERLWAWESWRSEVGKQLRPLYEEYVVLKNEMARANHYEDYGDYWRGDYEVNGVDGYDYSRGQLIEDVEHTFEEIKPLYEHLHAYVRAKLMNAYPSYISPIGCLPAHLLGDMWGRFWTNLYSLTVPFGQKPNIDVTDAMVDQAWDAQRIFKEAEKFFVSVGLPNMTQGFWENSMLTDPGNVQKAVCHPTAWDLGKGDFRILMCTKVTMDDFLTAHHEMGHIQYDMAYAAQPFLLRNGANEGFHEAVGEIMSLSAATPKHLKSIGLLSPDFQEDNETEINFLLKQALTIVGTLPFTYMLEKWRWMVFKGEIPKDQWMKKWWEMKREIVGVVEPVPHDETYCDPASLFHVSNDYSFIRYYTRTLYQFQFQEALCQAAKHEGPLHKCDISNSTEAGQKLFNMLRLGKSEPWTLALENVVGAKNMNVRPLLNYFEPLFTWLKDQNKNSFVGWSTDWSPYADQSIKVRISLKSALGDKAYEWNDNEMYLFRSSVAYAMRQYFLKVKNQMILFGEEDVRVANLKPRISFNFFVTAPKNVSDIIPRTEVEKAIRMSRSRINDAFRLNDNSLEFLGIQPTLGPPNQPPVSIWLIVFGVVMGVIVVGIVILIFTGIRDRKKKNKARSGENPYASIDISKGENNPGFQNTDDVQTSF

In the case of `CC(C)C[C@H](NC(=O)[C@@H]1CCCN1C(=O)[C@H](Cc1ccccc1)NC(=O)[C@H](Cc1ccc(O)cc1)NC(=O)[C@H](CS)NC(=O)[C@H](CC(N)=O)NC(=O)[C@H](Cc1ccccc1)NC(=O)CNC(=O)[C@H](CCC(=O)O)NC(=O)[C@@H](NC(=O)[C@H](CCCCN)NC(=O)[C@H](CCCCN)NC(=O)[C@H](CCCCN)NC(=O)[C@H](CCCCN)NC(=O)[C@H](CCCCN)NC(=O)[C@@H](N)CCCCN)C(C)C)C(=O)N[C@@H](CCC(N)=O)C(=O)N[C@@H](CO)C(=O)O` [AYp28], the pKd at ACE2 was 7.32. At ACE2 (pH 7.4), this compound returned an off-rate (koff) of 0.000205 s⁻¹ and an association rate constant (kon) of 4310 M⁻¹ s⁻¹. The cytotoxicity result with HEK293T/hACE2 cells is “no significant cytotoxicity”. In data set [1], the “distribution in livers and kidneys” value is “not in the kidneys and livers”; the “distribution in lungs and small intestine” value was “preferentially distributed in the lungs and intestine”.

The values are drawn from paper PMC8326117 (International Journal of Biological Sciences, 2021).
